{"source": "patent US10874685B2", "about": "“Pancreatic cancer therapy and diagnosis” (Deutsches Krebsforschungszentrum Stiftung des Öffentlichen …, priority 2014, dated 2020)", "key": {"[1]": {"tested_on": "MIAPaCa-2, PANC-1 and AsPC-1 cells", "assay": "Free cholesterol measurement (Filipin staining) in PDAC cell lines", "assay_type": "cell-based, human", "details": "10 μM, 18 hours; vs DMSO", "source_text": "Measurement of 2-deoxy-D-glucose uptake shown on the y-axis relative to control by PDAC cell lines (MIAPaCa2, left; PANC-1, middle; AsPC1, right) treated with DMSO (C), pimozide (P) or haloperidol (H) (FIG. 10A). Abundance of free cholesterol, as measured by staining with filipin, after treatment with haloperidol (H) or pimozide (P) in PDAC cell lines (MIAPaCa2, left; PANC-1, middle; AsPC1, right) (FIG. 10B top). Representative micrographs of filipin-labelled cholesterol. PDAC (MIAPaCa2, top; PANC-1, middle; AsPC1, bottom) cells were seeded for 24 hours and treated with 10 μM haloperidol (H) or pimozide (P) or DMSO for 18 hours (FIG. 10B bottom). Red-fluorescence represents propidium iodide (PI)-stained nuclei and blue-fluorescence represents filipin-stained cholesterol. mRNA levels of genes relative to R-actin shown on the y-axis involved in cholesterol biosynthesis (from left to right: SREBP1, SREBP2, INSIG1, HMGCR, LDLR) measured by qRT-PCR 18 hours post-treatment with DMSO (C), haloperidol (H) or pimozide (P) in three PDAC cell lines (MIAPaCa2, top; PANC-1, middle; AsPC1, bottom) (FIG. 10C).\nCancer cells were seeded for 24 hours and treated with pimozide, haloperidol or DMSO for 18 hours. The cells were fixed with paraformaldehyde, stained with Filipin™ and propidium iodide (PI), and photographed. Filipin™ is a fluorescent polyene antibiotic that binds to free cholesterol. […]"}, "[2]": {"tested_on": "KPC-023, KPC-01 and KPC-LM pancreatic cancer cell lines", "assay": "Viability of primary and metastatic pancreatic cancer cell lines isolated from KPC mice", "assay_type": "cell-based", "details": "primary (KPC-023, KPC-01) and metastatic (KPC-LM) lines"}, "MIAPaCa-2 cells": {"tested_on": "MIAPaCa-2 cells", "assay": "Transwell (Boyden chamber) migration assay, MIAPaCa-2", "assay_type": "cell-based, human", "details": "MIAPaCa-2, Boyden chamber, increasing doses, 4 h", "description": "MIAPaCa-2 cells were platted on transwells and exposed to increasing doses of Pimozide for 4 h (FIG. 7A). Migrated cells were measured and normalized to their controls. Values are the mean+/−SD of four replicate.\nThis assay for confirmation of cell migration was performed using 96-well Costar Transwell chambers with 8.0 μm pore polycarbonate membranes (Corning Inc., Corning, N.Y.). Cell culture inserts transwells were placed in wells of 96 well plate. The bottom chambers were filled with 120 μl of cell culture medium containing 10% FBS. Cells suspended in 70 μl serum free medium with DMSO as negative control or drugs were added to the upper part of each chamber followed by incubation at 37° C. with 5% CO2. After 4 h the medium was aspirated from the top of chambers and the bottom side of chambers washed with PBS. Those that have penetrated to the bottom side of the membrane were detached with 0.25% tryspin/EDTA during 3 min (37° C.) followed by inactivation of trypsine with soybean (Sigma Aldrich). […] Six replicates were performed for each treatment condition to predict the responder outcome variable and the luminescence signal which is corresponding to the number of live suspended cells was measured. Graph was plotted according to the readings obtained. […]"}, "PANC-1 cells [3]": {"tested_on": "PANC-1 cells", "assay": "Wound healing (scratching) assay for cell migration", "assay_type": "cell-based, human", "details": "PANC-1, increasing concentrations, 10 h", "description": "PANC-1 cells were plated in the chamber were already attached in 12 well plate and allowed to grow for 24 h. Then, a wound was made in the confluent monolayer by removing the chamber. Cells were exposed to increasing concentration of Pimozide (FIG. 6A) or L741 (FIG. 6B) and vehicle for 10 h. Wound gap closure was measured for each drug concentration by comparing the gap at time 0 h to the one at the time 10 h when the gap closed in negative control and normalized to untreated condition.\nPANC-1 cells were seeded into the 35 mm-dish culture-silicon Insert frames from Ibidi where already attached to the 6 well culture plate. When 96-98% confluency was achieved, the insert frames were removed using sterile forceps to reach cell free gap. To create a reference point for subsequent measurements, three different part of the gap was marked on the underside of the plastic. Floating cells and cell debris were washed using PBS, relative culture medium was added to each wells and migration distance was photographed using a Zeiss Axiovert 24 light microscope at zero time in the marked areas. Afterward, the wells were treated by addition of DMSO as control and different increasing concentration of Pim and L741. Plates were then placed into the incubator and the cells were allowed to migrate until the time when the gap for the […] closed (t time). Images were taken from the marked areas again. This assay was performed employing various concentrations of drugs at which maximum 5% viability inhibition was observed after 10 h treatment."}, "PANC-1 cells [4]": {"tested_on": "PANC-1 cells", "assay": "Transwell (Boyden chamber) migration assay, PANC-1", "assay_type": "cell-based, human", "details": "PANC-1, Boyden chamber, increasing doses, 4 h"}}, "note": "Entries after “also recorded” stand apart in the source; their conditions may differ."}
{"smiles": "O=c1[nH]c2ccccc2n1C1CCN(CCCC(c2ccc(F)cc2)c2ccc(F)cc2)CC1", "note": "[pimozide]", "values": [{"measurement": "abundance of free cholesterol (Filipin staining)", "setting": "[1]", "result": "increased the abundance of free cholesterol; also recorded: enhanced glucose and cholesterol uptake"}, {"measurement": "viability of KPC mouse pancreatic cancer cell lines", "setting": "[2]", "result": "sensitive; also recorded: Dose-dependent effects"}, {"measurement": "migrated cells", "setting": "MIAPaCa-2 cells", "result": "significantly reduced migrated cells; also recorded: dose dependent inhibitory effect"}, {"measurement": "tumor cell migration (wound gap closure)", "setting": "PANC-1 cells [3]", "result": "tumor cell migration was affected"}, {"measurement": "tumor cell migration (wound gap closure)", "setting": "PANC-1 cells [3]; listed as Pimozide", "result": "dose dependent inhibitory effect"}, {"measurement": "migrated cells", "setting": "PANC-1 cells [4]", "result": "significantly reduced migrated cells; also recorded: Dose dependent inhibitory effect"}]}
